Test results as given in patent publication US20160377635A1, “Measurement of Oxytocin and Vasopressin” (Martin-Protean LLC, priority 2013, published 2016).

How the values were obtained:
[1] = test system: excised and bathed section of mammary gland tissue; conditions: cited from earlier work
[2] = target: albumin (Homo sapiens, UniProt P02768); assay: incubation with free thiol containing albumin, acetone precipitation; assay type: in vitro ADME
Description: (§1) Oxytocin and vasopressin undergo disulfide exchange with abundant thiol containing compounds under aerobic conditions like those found in blood plasma. […] If albumin (1 mM) is added to that mixture all detectable oxytocin and vasopressin sequester with albumin upon acetone precipitation. Oxytocin immunoreactivity in plasma is associated with high molecular weight species (Szeto et al). When beta-mercaptoethanol (1 M) and histamine (30 mM) are added to plasma, oxytocin and vasopressin in the 1-100 nM range were recovered rather than the 1-100 pM range recovered without thiols or reported routinely with existing commercially available immunoreactivity tests. The mid nanomolar range is much more consistent with the concentrations required in biological assays for these compounds, such as inducing the lactation reflect with rabbit mammary tissue. Nanomolar concentrations for oxytocin and vasopressin are also far more consistent with the doses required for either peptide in intervention regimes.
Acetone extraction of the incubation clears oxytocin and vasopressin from the solution into the pellet with the albumin. In one embodiment, exceptionally short half-life of oxytocin is measured with immunoreactivity on acetone extracted fractions. Observation of disulfide exchange mediated accumulation of oxytocin on high molecular weight proteins in the plasma.

[3] = disulfide exchange with plasma thiols in the presence of air; assay type: physicochemical
Description: as §1
Incubating oxytocin and vasopressin them with glutathione at its plasma concentration in the presence of air (as in blood) induces oxytocin and vasopressin to disulfide exchange with glutathione and undergo additional oxidation resulting in the accumulation of diglutathione adducts (FIGS. 4A-C). This additional oxidation-containing product accumulates even in the presence of a vast excess of reducing equivalents in the form of remaining excess reduced glutathione. The introduction of air lead to a disulfide exchange result distinct from that observed in the published literature. The disulfide exchange is inhibited by EDTA which is added to most blood as a preservative. In the body the hormones undergo exchange, but in collected blood the EDTA will inhibit diglutathione formation unless the redox state of the collected blood is perturbed, as FIG. 5.

[4] = reduced glutathione (1 mM) and oxygen, peptide ~10 nM
[5] = reduced glutathione, reduced cysteine (0.5 mM) and oxygen

albumin, sequence (P02768 25-609, species assumed): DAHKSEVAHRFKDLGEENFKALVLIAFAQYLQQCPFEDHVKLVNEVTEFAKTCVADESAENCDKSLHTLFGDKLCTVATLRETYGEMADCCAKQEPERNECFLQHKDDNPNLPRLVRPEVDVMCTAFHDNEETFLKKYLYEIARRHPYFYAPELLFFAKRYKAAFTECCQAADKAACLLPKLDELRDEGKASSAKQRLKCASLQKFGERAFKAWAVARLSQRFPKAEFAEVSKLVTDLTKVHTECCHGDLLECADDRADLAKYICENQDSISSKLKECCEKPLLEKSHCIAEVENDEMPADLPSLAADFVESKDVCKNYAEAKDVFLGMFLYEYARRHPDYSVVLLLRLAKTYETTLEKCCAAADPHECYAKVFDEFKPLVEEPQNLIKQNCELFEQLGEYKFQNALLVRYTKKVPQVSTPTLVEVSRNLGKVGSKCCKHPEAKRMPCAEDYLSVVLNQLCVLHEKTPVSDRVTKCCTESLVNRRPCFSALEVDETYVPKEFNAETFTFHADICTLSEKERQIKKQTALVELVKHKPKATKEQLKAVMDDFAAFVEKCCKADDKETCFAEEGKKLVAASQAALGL

For `CC[C@H](C)[C@@H]1NC(=O)[C@H](Cc2ccc(O)cc2)NC(=O)[C@@H](N)CSSC[C@@H](C(=O)N2CCC[C@H]2C(=O)N[C@@H](CC(C)C)C(=O)NCC(N)=O)NC(=O)[C@H](CC(N)=O)NC(=O)[C@H](CCC(N)=O)NC1=O` [oxytocin], the “linear response range for contraction response” value [1] is given as 1 to 20 ng/mL, the adsorption to albumin ([2]; pH 7.4) is given as “quantitative adsorption to albumin” and the “adduct formation by disulfide exchange” value [3, 4] is given as “form diglutathione adducts”. For the same molecule, the “adduct formation by disulfide exchange” value [3, 5] was “form dicysteine adducts”.
For `NC(=O)CC[C@@H]1NC(=O)[C@H](Cc2ccccc2)NC(=O)[C@H](Cc2ccc(O)cc2)NC(=O)[C@@H](N)CSSC[C@@H](C(=O)N2CCC[C@H]2C(=O)N[C@@H](CCCN=C(N)N)C(=O)NCC(N)=O)NC(=O)[C@H](CC(N)=O)NC1=O` [vasopressin], the adsorption to albumin ([2]; pH 7.4, room temperature (or 37° C.), with or without glutathione and cysteine) was “quantitative adsorption to albumin”, the “adduct formation by disulfide exchange” value [3, 4] was “form diglutathione adducts” and the “adduct formation by disulfide exchange” value [3, 5] was “form dicysteine adducts”.
